The target of one data set is T1, bovine adrenal CYP11B (Bos taurus, UniProt P15150).
T1 sequence (P15150 25-503): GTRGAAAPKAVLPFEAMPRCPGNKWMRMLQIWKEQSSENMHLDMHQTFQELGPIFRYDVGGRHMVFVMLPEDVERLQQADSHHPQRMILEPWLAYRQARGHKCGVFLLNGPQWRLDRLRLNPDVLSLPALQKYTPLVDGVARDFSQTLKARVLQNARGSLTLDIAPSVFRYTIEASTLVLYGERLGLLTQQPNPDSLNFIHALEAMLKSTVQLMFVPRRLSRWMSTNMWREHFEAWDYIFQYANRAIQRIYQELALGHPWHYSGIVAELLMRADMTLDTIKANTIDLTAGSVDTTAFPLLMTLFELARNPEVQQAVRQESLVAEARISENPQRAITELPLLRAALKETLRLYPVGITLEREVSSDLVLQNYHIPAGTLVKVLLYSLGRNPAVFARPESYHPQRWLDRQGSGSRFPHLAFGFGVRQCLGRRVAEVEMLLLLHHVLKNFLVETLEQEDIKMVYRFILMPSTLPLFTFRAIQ
Description: Percent inhibition of bovine CYP11B (adrenal mitochondria). The note with it: read-out: % Inhibition bovine bCYP11B, bovine adrenal mitochondria, 1 mg/ml protein; corticosterone substrate 200 μM; inhibitor 1 μM.

The record followed here is US20090105278A1, “Selective inhibitors of human corticosteroid syntheses” (Universitat Des Saarlandes, priority 2004, published 2009).

Where a name gives a salt, the structure may show the parent alone.

Description for bovine adrenal CYP11B: Bovine adrenal glands obtained freshly after slaughtering were stored in ice cold Tris-sucrose buffer (0.25 M sucrose, 0.05 M Tris; pH 7.4) until processed. After removing the appending adipose tissue, the adrenal medulla was carefully separated from the adrenal cortex using scissors. The pieces of adrenal cortex were coarsely comminuted with scissors, washed with Tris-sucrose buffer, weighed and finely comminuted in the above buffer (2 ml per g of tissue) with a hand mixer. Thereafter, the tissue was homogenized with an Ultra-Turrax mixer. For separating coarse cell debris and the nuclei, the homogenizate was centrifuged twice for 15 min at 900 g and 4° C. The supernatant was subsequently centrifuged for 35 min at 11,000 g for recovering the mitochondrial fraction. For purifying the mitochondrial fraction, the precipitate was resuspended in Tri-sucrose buffer and again centrifuged at 11,000 g for 35 min. This washing step was performed two times in total. After the last centrifugation, the pellet was resuspended in Tris-sucrose buffer containing 0.001 M EDTA and frozen at −70° C.
The substrate corticosterone was dissolved in methanol and diluted with Tris buffer to a final concentration of 200 μM. The inhibitors were also dissolved in methanol and diluted with buffer to a final concentration of 1 μM. […] Corticosterone (200 μM) was incubated with inhibitor (1 μM) and mitochondrial enzyme (0.5 mg/0.5 ml) with the addition of a regenerating system consisting of NADP^+ (1 mM), glucose-6-phosphate (7 mM) and glucose-6-Phosphate dehydrogenase (1 IU/0.5 ml). Up to 5 inhibitors per test could be incubated in duplicate. […] After preincubation for 5 minutes (30° C.; water bath), the reaction was started by adding mitochondrial suspension. […] The blind values were admixed with 250 μl of HCl before the enzyme was pipetted in. The steroids were separated off by shaking with 1 ml of ethyl acetate (10 min). After centrifugation (15,000 g, 10 min), 900 μl of the organic phase was shaken with 250 μl 1 N NaOH (10 min), and 800 μl of supernatant was again washed with 250 μl of buffer. […] 18-OH-corticosterone (retention time: 10 min) and corticosterone (retention time: 21 min) were separated. The height of the 18-OH-corticosterone peak was used for evaluation. The percent inhibition of the 18-hydroxylation of corticosterone by the inhibitors was based on the mediums of the control incubation, taking the blind values into account.

As for `Fc1ccc2c(c1)CC/C2=C\c1cccnc1` (as salt: hydrochloride) [Compound 5a, 3-[(E)-(5-Fluoro-2,3-dihydro-1H-indane-1-ylidene)methyl]pyridine Hydrochloride], the melting point stood at 245 °C. The compound `Fc1ccc2c(c1)CC/C2=C/c1cccnc1` (as salt: hydrochloride) [Compound 5b, 3-[(Z)-(5-Fluoro-2,3-dihydro-1H-indane-1-ylidene)methyl]pyridine Hydrochloride] came in with a melting point of 245 °C. On the same count and under the same terms, the value for `Fc1ccc2c(c1)CC/C2=C\c1ccncc1` (as salt: hydrochloride) [Compound 6a, 4-[(E)-(5-Fluoro-2,3-dihydro-1H-indane-1-ylidene)methyl]pyridine Hydrochloride] was 224 °C; that for `Fc1ccc2c(c1)CC/C2=C/c1ccncc1` (as salt: hydrochloride) [Compound 6b, 4-[(Z)-(5-Fluoro-2,3-dihydro-1H-indane-1-ylidene)methyl]pyridine Hydrochloride] was 223 °C. The same measure, in the same setting: the value for `Clc1ccc2c(c1)CC/C2=C\c1cccnc1` (as salt: hydrochloride) [Compound 7a, 3-[(E)-(5-Chloro-2.3-dihydro-1H-indane-1-ylidene)methyl]pyridine Hydrochloride] was 234 °C; that for `Clc1ccc2c(c1)CC/C2=C/c1cccnc1` (as salt: hydrochloride) [Compound 7b, 3-[(Z)-(5-Chloro-2,3-dihydro-1H-indane-1-ylidene)methyl]pyridine Hydrochloride] was 238 °C; that for `Clc1ccc2c(c1)CC/C2=C\c1ccncc1` (as salt: hydrochloride) [Compound 8a, 4-[(E)-(5-Chloro-2,3-dihydro-1H-indane-1-ylidene)methyl]pyridine Hydrochloride] was 213 °C. On the same count and under the same terms, the value for `Brc1ccc2c(c1)CC/C2=C\c1cccnc1` (as salt: hydrochloride) [Compound 9a, 3-[(E)-(5-Bromo-2,3-dihydro-1H-indane-1-ylidene)methyl]pyridine Hydrochloride] was 241 °C. In turn, `Brc1ccc2c(c1)CC/C2=C/c1cccnc1` (as salt: hydrochloride) [Compound 9b, 3-[(Z)-(5-Bromo-2,3-dihydro-1H-indane-1-ylidene)methyl]pyridine Hydrochloride] showed a melting point of 243 °C. For `Brc1ccc2c(c1)CC/C2=C\c1ccncc1` (as salt: hydrochloride) [Compound 10a, 4-[(E)-(5-Bromo-2,3-dihydro-1H-indane-1-ylidene)methyl]pyridine Hydrochloride], the melting point amounted to 266 °C.

Take `COc1ccc2c(c1)CC/C2=C/c1cccnc1` (as salt: hydrochloride) [Compound 11b, 3-[(Z)-(5-Methoxy-2,3-dihydro-1H-indane-1-ylidene)methyl]pyridine Hydrochloride]: the melting point is 220 °C. For the compound `Cc1cccc2c1CC/C2=C\c1cccnc1` (as salt: hydrochloride) [Compound 23a, 3-[(E)-(4-Methyl-2,3-dihydro-1H-indane-1-ylidene)methyl]pyridine Hydrochloride], the melting point came out at 231 °C. `Fc1ccc2c(c1)CC/C2=C\c1cccc2cnccc12` (as salt: hydrochloride) [Compound 30a, 5-[(E)-(5-Fluoro-2,3-dihydro-1H-indane-1-ylidene)methyl]isoquinoline Hydrochloride] showed a melting point of 234 °C. For the compound `Fc1ccc2c(c1)CC/C2=C/c1cccc2cnccc12` (as salt: hydrochloride) [Compound 30b, 5-[(Z)-(5-Fluoro-2,3-dihydro-1H-indane-1-ylidene)methyl]isoquinoline Hydrochloride], the melting point stood at 201 °C.

Compound `C(=C1/CCc2ccccc21)/c1cnc[nH]1` (as salt: hydrochloride) [Compound 42a, 5-[(E)-2,3-Dihydro-1H-indane-1-ylidenemethyl]-1H-imidazole] returned a melting point of 148 to 151 °C. Same read-out and setting: the value for `C(=C1/CCc2ccccc21)/c1ccncc1` (as salt: oxalate) [Compound 2a, 4-[(E)-2,3-Dihydro-1H-indane-1-ylidenemethyl]pyridine Oxalate] was 167 °C; that for `C(=C1\CCc2ccccc21)/c1cnc[nH]1` (as salt: oxalate) [Compound 42b, 5-[(Z)-2,3-Dihydro-1H-ind-1-ylidenemethyl]-1H-imidazolium oxalate] was 196 °C. `c1cncc(-c2ccc3cccc4c3c2CC4)c1` (as salt: salt) [Compound 50, 3-(1,2-Dihydroacenaphthylene-3-yl)pyridine] returned a melting point of 208 °C. Regarding `CC(=O)N1CCN(c2ccc(OCC3COC(Cn4ccnc4)(c4ccc(Cl)cc4Cl)O3)cc2)CC1` (stereo not shown) [Ketoconazole, reference compound], at bovine adrenal CYP11B, the inhibition at 1 µM worked out at 78%.

In general, melting point refers to the temperature, or range, at which the solid turns liquid.
